We go through one molecule from paper PMC9401487 (Clinical Cancer Research, 2021).

One data set relates to ATR. As to conditions: read-out: IC90 for ATR inhibition in cells; cited from earlier work.
In data set [1] the test system is LoVo colorectal cancer cell line. Put plainly: LoVo growth inhibition, ceralasertib alone or with carboplatin. Type of data set: cell-based, human.
The nature of data set [2]: Clinical plasma pharmacokinetics of ceralasertib. The settings on record: human, oral. The class given is in vivo.
The subject of another data set is pRAD50. Put plainly: pRAD50 IHC H-score in paired tumor biopsies. Type of data set: in vivo, human.
Another data set has as its system advanced solid tumors. Kind of data set: Preliminary antitumor activity, tumor response by RECIST v1.1. Type of data set: in vivo, human.
Data set [3] concerns TP53-mutant triple-negative breast cancer PDX. As to conditions: cited from earlier work.

By IC90 is commonly meant the point of the concentration-response curve where the effect stands at 90%. As a reminder, the half-life is the time needed for the level to fall by half in the phase considered. Broadly, the Tmax is the time at which the peak concentration occurs.

Read-outs that look alike come from different tables or passages of the source.

As for `C[C@@H]1COCCN1c1cc(C2([S@](C)(=N)=O)CC2)nc(-c2cc[nH]c3nccc2-3)n1` [ceralasertib], the IC90 with ATR was […]. Also, the “Combination cell killing with carboplatin” value in data set [1] (0.1 μmol/L ceralasertib) was “not at 0.1 μmol/L”; in data set [1] (0.3 μmol/L ceralasertib), “combination cell killing with carboplatin was seen”; in data set [1] (1 μmol/L ceralasertib), “Greater cell killing”. Moreover, the half-life in data set [2] (mean half-life, administered alone) was 8.14 to 10.6 h; in data set [2] (mean half-life, in combination with carboplatin) it was 5.14 to 7.22 h; in data set [2] (terminal plasma half-life, abstract summary) it was 8 to 11 h. In addition, the Tmax in data set [2] (median tmax, in combination with carboplatin) is 1.05 to 1.07 h; in data set [2] (median tmax, single dose, alone, across dose groups), 1 to 1.03 h; in data set [2] (tmax, abstract summary) it was about 1 h. Moreover, in the data set with pRAD50 (all four evaluable paired tumor biopsies), the “pRAD50 expression following treatment” value is on record as “clear increases in pRAD50 expression”. For the same molecule, in the data set on pRAD50 (cohort 7 patient, baseline ATM 20%, H-scores of 20–80), the “Increase in pRAD50 expression” value is 400%. The “Best response of progressive disease, patients” value in the data set with advanced solid tumors (12 of 34 response-evaluable patients) amounted to 35%. The “Best RECIST v1.1 response of stable disease (≥35 days), patients” value in the data set on advanced solid tumors (18 of 34 response-evaluable patients, including the two unconfirmed PRs) worked out at 53%. In the data set with advanced solid tumors (evaluable-for-response set n=34, 1 in cohort 3, 1 in cohort 7), the “Unconfirmed RECIST v1.1 PRs” value turned out to be 2 patients. Also, the “Confirmed RECIST v1.1 partial responses” value in the data set with advanced solid tumors (evaluable-for-response set n=34, both in cohort 6) is 2 patients. Besides, the “Tumor reduction (unconfirmed response)” value in the data set on advanced solid tumors (one patient, cohort 7, clear cell ovarian cancer, two cycles) was found to be 43%. Moreover, the Tumor control result in data set [3] (carboplatin dosed concurrently with ceralasertib on day 2 or 3) is “growth inhibition rather than tumor control”. Moreover, the Antitumor efficacy result in data set [3] (ceralasertib dosed 2 days after carboplatin) is “tumor control”; in data set [3] (ceralasertib dosed 3 days after carboplatin) it was “tumor regression”.
